Measured values: patent US20180273970A1, “PLASMID, TRANSFORMED PLANT CELL AND TRANSGENIC PLANT COMPRISING THE SAME, AND METHODS FOR PREPARING A TRANSGENIC PLANT AND FOR INCREASING YIELD OF A PLANT UNDER ABIOTIC STRESSES” (Academia Sinica, priority 2014, published 2018)

What was measured:
SKIN1 = assay: Quantitative RT-PCR of SKIN1 mRNA in leaves of 2-week-old rice seedlings after stress or ABA; assay type: in vivo; conditions: 24 h after 1 μM ABA
Protocol: FIG. 9. The expression of SKIN is induced by various abiotic stresses and ABA, and SKINs promote the ABA sensitivity. (A) Total RNA was purified from leaves of 2-week-old rice seedlings that had been air dried, treated with 200 mM salt, incubated at 4° C., or treated with 1 μM ABA, or from embryos of seedlings grown underwater (hypoxia), for various lengths of time. RNAs were subjected to quantitative RT-PCR analysis using primers specific for SKIN1 and SKIN2. The highest mRNA level was set as 100%. The lowest mRNA level was assigned a value of 1× and mRNA levels of other samples were calculated relative to this value. Error bars indicate the SE for three replicate experiments. (B) Seeds of transgenic lines SKIN1-Ox(O3), SKIN1-Ri(R3), SKIN2-Ox(02) and SKIN2-Ri(R1) were germinated and grown in water containing various concentrations of ABA at 28° C. under a 14-h light/10-h dark cycle for 6 days. Lengths of shoots were measured. Error bars represent SE (n=8) at significance levels: * p<0.1, ** p<0.05. […]
Total RNA was extracted from leaves of rice seedlings with the Trizol reagent (Invitrogen) and treated with RNase-free DNase I (Promega, Madison, Wis.). […] The quantitative variation between different samples was evaluated by the delta-delta CT method, and the amplification of 18S ribosomal RNA was used as an internal control to normalize all data.

rice seedlings = assay: Germination and seedling shoot growth in water containing ABA; assay type: in vivo; conditions: ABA 1 to 10 μM, 6 days, 28° C., 14-h light/10-h dark
Protocol: FIG. 9. The expression of SKIN is induced by various abiotic stresses and ABA, and SKINs promote the ABA sensitivity. (A) Total RNA was purified from leaves of 2-week-old rice seedlings that had been air dried, treated with 200 mM salt, incubated at 4° C., or treated with 1 μM ABA, or from embryos of seedlings grown underwater (hypoxia), for various lengths of time. RNAs were subjected to quantitative RT-PCR analysis using primers specific for SKIN1 and SKIN2. The highest mRNA level was set as 100%. The lowest mRNA level was assigned a value of 1× and mRNA levels of other samples were calculated relative to this value. Error bars indicate the SE for three replicate experiments. (B) Seeds of transgenic lines SKIN1-Ox(O3), SKIN1-Ri(R3), SKIN2-Ox(02) and SKIN2-Ri(R1) were germinated and grown in water containing various concentrations of ABA at 28° C. under a 14-h light/10-h dark cycle for 6 days. Lengths of shoots were measured. Error bars represent SE (n=8) at significance levels: * p<0.1, ** p<0.05. For photos of treated seedlings, see also FIG. 20 online.
FIG. 20. Growth of transgenic rice overexpressing SKIN is more sensitive to ABA inhibition. Seeds of transgenic lines SKIN1-Ox(O3), SKIN1-Ri(R3), SKIN2-Ox(02) and SKIN2-Ri(R1) were germinated and grown in water containing various concentrations of ABA for 6 days at 28 C under a 14-h light/10-h dark cycle. […]

[1] = test system: interaction between SnRK1A and SKINs; assay: Rice embryo GAL4-UAS two-hybrid assay (luciferase); assay type: cell-based; conditions: rice embryos, −S medium containing 1 μM ABA
Protocol: FIG. 2. The N-terminus of SKIN interacts with the kinase domain of SnRK1A. For the GAL4-UAS two-hybrid assay, rice embryos were co-transfected with effector and reporter plasmids, incubated in −S medium for 24 h, and assayed for luciferase activity. The luciferase activity in rice embryos bombarded with effectors Ubi:GAD, Ubi:GBD and reporter 5XUAS-35S mp:Luc was set to 1×, and other values were calculated relative to this value. Error bars indicate the SE for three replicate experiments. Significance levels: * p<0.1, ** p<0.05. The Y axis indicates the relative luciferase activity with different constructs. (A) Plasmid constructs. (B) Rice embryos were co-transfected with effectors Ubi:GAD-SnRK1A and Ubi:GBD-SKIN (wild type or truncated) and reporter 5XUAS-35S mp:Luc. (C) Rice embryos were co-transfected with effectors Ubi:GAD-SnRK1A [wild type, kinase domain (KD) or regulatory (RD)], Ubi:GBD-SKIN and reporter 5XUAS-35S mp:Luc. (D) Rice embryos were co-transfected with effectors Ubi:GAD-SnRK1A and Ubi:GBD-SKIN and reporter 5XUAS-35S mp:Luc, and incubated in −S medium containing 1 μM ABA.
Rice embryos were prepared for particle bombardment as described (Chen et al., 2006). The rice embryos were bombarded with reporter, effectors and internal control at a ratio of 4:2:1 for single effector or 4:2:2:1 for two effectors. […]

CC1=CC(=O)CC(C)(C)[C@@]1(O)/C=C/C(C)=C\C(=O)O [ABA, abscisic acid]
Induction of SKIN1 mRNA accumulation (SKIN1): ≤ 4.2 fold
Degree of inhibition on growth of wild type and all transgenic lines (rice seedlings): increased with ABA concentrations from 1 to 10 μM
Effect on the interaction between SnRK1A and SKINs [1]: enhanced
